In patent US7968526B2, “Antisense oligonucleotides directed to ribonucleotide reductase R2 and uses thereof in the treatment of cancer” (Lorus Therapeutics Inc., priority 2003, dated 2011):
Entries after “also recorded” stand apart in the source; their conditions may differ.

Columns and labels:
[1] = system: LS513 multi-drug resistant colon carcinoma cells; assay: LS513 multi-drug resistant colon carcinoma xenograft in SCID mice, combination with CPT-11 (2.8); format: in vivo, human cells in mice; conditions: SEQ ID NO:1 10 mg/kg i.v. every other day, CPT-11 20 mg/kg/day i.p. 5 days
Procedure: BxPC-3 is a gemcitabine resistant call line. […] Gemcitabine was administered intravenously every three days at a dose of 100 mg/kg. Antitumour activities were estimated by the inhibition of tumour volume, which was measured with caliper. Each point represents mean tumour volume calculated from 10 animals per experimental group. […] Hela S3 is a hydroxyurea resistant cell line. […] Hydroxyurea was administered intraperitoneally every day at a dose of 250 mg/kg for 10 days. Cisplatin was administered intravenously once a week for three weeks at a dose of 4 mg/kg. Antitumour activities were estimated by the inhibition of tumour volume, which was measured with caliper. Each point represents mean tumour volume calculated from 10 animals per experimental group. […] Cisplatin was administered intravenously once a week for three weeks at a dose of 4 mg/kg. Taxol was administered intravenously once a week for three weeks at a dose of 10 mg/kg. Antitumour activities were estimated by the inhibition of tumour volume, which was measured with caliper. Each point represents mean tumour volume calculated from 10 animals per experimental group. […] Taxol was administered i.p. once a week at a dose of 10 mg/kg. Antitumour activities were estimated by the inhibition of tumour volume (FIG. 12A), which was measured with calipers. Each point represents mean tumour volume calculated from 10 animals per experimental group. […] Antitumour activities were estimated by the inhibition of tumour volume, which was measured with caliper. Each point represents mean tumour volume calculated from 9-10 animals per experimental group. […] Antitumour activities were estimated by the inhibition of tumour volume, which was measured with caliper. Each point represents mean tumour volume calculated from 10 animals per experimental group. […] Anti-tumour activity was estimated by the inhibition of tumour volume, which was measured with caliper. Each point represents mean tumour volume calculated from 10 animals per experimental group. […] Antitumour activities were estimated by the inhibition of tumour volume, which was measured with caliper. […]

[2] = Tissue distribution in the monkey (CE method); format: in vivo
Procedure: The toxicokinetics and tissue distribution of SEQ ID NO:1 (and related oligonucleotide metabolites obtained from exonuclease-mediated chain shortening) were determined in rats and monkeys. In addition to investigating the pharmacokinetics and tissue distribution of SEQ ID NO:1, the purpose of the studies was to correlate adverse effects in the animal studies to the concentrations of SEQ ID NO:1 (and metabolites) in tissue and blood. A capillary electrophoresis (CE) method was used to measure the concentrations of SEQ ID NO:1 (and metabolites) in plasma and tissues.
The concentrations of SEQ ID NO:1 (and related n+1, n−1 to n−15 oligonucleotide metabolites) in the following rat and monkey tissues were measured by a validated CE method (Southwest Bio-Labs, Inc.): kidney, liver, spleen, heart, lung, bone marrow (rat), lymph nodes (monkey) and brain tissues. The tissue samples were collected from the designated animals as described in the 21-day toxicity studies: rats, administered bolus intravenous injections of SEQ ID NO:1 every other day at 2, 10, or 50 mg/kg; and monkeys administered SEQ ID NO:1 by continuous intravenous infusion at 2, 10, or 50 mg/kg/day.

[3] = 2 mg/kg/day continuous i.v. infusion, Necropsy Day 22
[4] = 10 mg/kg/day continuous i.v. infusion, Necropsy Day 22
[5] = 50 mg/kg/day continuous i.v. infusion, Necropsy Day 22
[6] = 50 mg/kg/day continuous i.v. infusion, Necropsy Day 43

5′-GGCTAAATCGCTCCACCAAG-3′ (all phosphorothioate, sugars by position and methylation of C not given here) [SEQ ID NO: 1, fully phosphorothioated antisense oligonucleotide that hybridizes to the coding region of R2 mRNA]
Tumour weight as % of saline control ([1]; LS513 (colon) multi-drug resistant (CPT-11 sensitive), SCID): 49%
Antitumour effect (FIG. 16) ([1]; LS513, SCID mice): significant delay of tumour growth compared to saline control; also recorded: as effective as CPT-11
Rank order of tissue concentrations [2]: kidney>liver>bone marrow>spleen>heart>lung
Mean Concentration SEQ ID NO: 1, Brain [2, 3]: BDL (below detectable limits (1 μg/g rat; 0.2 μg/g monkey))
Mean Concentration SEQ ID NO: 1, Heart [2, 3]: BDL (below detectable limits (1 μg/g rat; 0.2 μg/g monkey))
Mean Concentration SEQ ID NO: 1, Kidney [2, 3]: 176.2 µg/g
Mean Concentration SEQ ID NO: 1, Liver [2, 3]: 137.8 µg/g
Mean Concentration SEQ ID NO: 1, Lung [2, 3]: BDL (below detectable limits (1 μg/g rat; 0.2 μg/g monkey))
Mean Concentration SEQ ID NO: 1, Lymph node [2, 3]: 2.2 µg/g
Mean Concentration SEQ ID NO: 1, Spleen [2, 3]: 17.8 µg/g
Mean Concentration total metabolites (n + 1 through n − 13), Brain [2, 3]: BDL (below detectable limits (1 μg/g rat; 0.2 μg/g monkey))
Mean Concentration total metabolites (n + 1 through n − 13), Heart [2, 3]: BDL (below detectable limits (1 μg/g rat; 0.2 μg/g monkey))
Mean Concentration total metabolites (n + 1 through n − 13), Kidney [2, 3]: 605.8 µg/g
Mean Concentration total metabolites (n + 1 through n − 13), Liver [2, 3]: 425.7 µg/g
Mean Concentration total metabolites (n + 1 through n − 13), Lung [2, 3]: BDL (below detectable limits (1 μg/g rat; 0.2 μg/g monkey))
Mean Concentration total metabolites (n + 1 through n − 13), Lymph node [2, 3]: 21.0 µg/g
Mean Concentration total metabolites (n + 1 through n − 13), Spleen [2, 3]: 71.4 µg/g
Mean Concentration SEQ ID NO: 1, Brain [2, 4]: BDL (below detectable limits (1 μg/g rat; 0.2 μg/g monkey))
Mean Concentration SEQ ID NO: 1, Heart [2, 4]: 1.9 µg/g
Mean Concentration SEQ ID NO: 1, Kidney [2, 4]: 246.5 µg/g
Mean Concentration SEQ ID NO: 1, Liver [2, 4]: 129.0 µg/g
Mean Concentration SEQ ID NO: 1, Lung [2, 4]: 1.6 µg/g
Mean Concentration SEQ ID NO: 1, Lymph node [2, 4]: 13.1 µg/g
Mean Concentration SEQ ID NO: 1, Spleen [2, 4]: 82.1 µg/g
Mean Concentration total metabolites (n + 1 through n − 13), Brain [2, 4]: BDL (below detectable limits (1 μg/g rat; 0.2 μg/g monkey))
Mean Concentration total metabolites (n + 1 through n − 13), Heart [2, 4]: 4.6 µg/g
Mean Concentration total metabolites (n + 1 through n − 13), Kidney [2, 4]: 886.1 µg/g
Mean Concentration total metabolites (n + 1 through n − 13), Liver [2, 4]: 486.2 µg/g
Mean Concentration total metabolites (n + 1 through n − 13), Lung [2, 4]: 4.2 µg/g
Mean Concentration total metabolites (n + 1 through n − 13), Lymph node [2, 4]: 86.2 µg/g
Mean Concentration total metabolites (n + 1 through n − 13), Spleen [2, 4]: 198.3 µg/g
Mean Concentration SEQ ID NO: 1, Brain [2, 5]: BDL (below detectable limits (1 μg/g rat; 0.2 μg/g monkey))
Mean Concentration SEQ ID NO: 1, Heart [2, 5]: 46.3 µg/g
Mean Concentration SEQ ID NO: 1, Kidney [2, 5]: 1425.2 µg/g
Mean Concentration SEQ ID NO: 1, Liver [2, 5]: 316.6 µg/g
Mean Concentration SEQ ID NO: 1, Lung [2, 5]: 39.2 µg/g
Mean Concentration SEQ ID NO: 1, Lymph node [2, 5]: 253.5 µg/g
Mean Concentration SEQ ID NO: 1, Spleen [2, 5]: 260.6 µg/g
Mean Concentration total metabolites (n + 1 through n − 13), Brain [2, 5]: BDL (below detectable limits (1 μg/g rat; 0.2 μg/g monkey))
Mean Concentration total metabolites (n + 1 through n − 13), Heart [2, 5]: 113.8 µg/g
Mean Concentration total metabolites (n + 1 through n − 13), Kidney [2, 5]: 3230.8 µg/g
Mean Concentration total metabolites (n + 1 through n − 13), Liver [2, 5]: 806.6 µg/g
Mean Concentration total metabolites (n + 1 through n − 13), Lung [2, 5]: 124.0 µg/g
Mean Concentration total metabolites (n + 1 through n − 13), Lymph node [2, 5]: 801.2 µg/g
Mean Concentration total metabolites (n + 1 through n − 13), Spleen [2, 5]: 1097 µg/g
Mean Concentration SEQ ID NO: 1, Brain [2, 6]: BDL (below detectable limits (1 μg/g rat; 0.2 μg/g monkey))
Mean Concentration SEQ ID NO: 1, Heart [2, 6]: 0.5 µg/g
Mean Concentration SEQ ID NO: 1, Kidney [2, 6]: 1.6 µg/g
Mean Concentration SEQ ID NO: 1, Liver [2, 6]: 0.9 µg/g
Mean Concentration SEQ ID NO: 1, Lung [2, 6]: BDL (below detectable limits (1 μg/g rat; 0.2 μg/g monkey))
Mean Concentration SEQ ID NO: 1, Lymph node [2, 6]: 59.9 µg/g
Mean Concentration SEQ ID NO: 1, Spleen [2, 6]: 57.2 µg/g
Mean Concentration total metabolites (n + 1 through n − 13), Brain [2, 6]: BDL (below detectable limits (1 μg/g rat; 0.2 μg/g monkey))
Mean Concentration total metabolites (n + 1 through n − 13), Heart [2, 6]: 3.5 µg/g
Mean Concentration total metabolites (n + 1 through n − 13), Kidney [2, 6]: 10.5 µg/g
Mean Concentration total metabolites (n + 1 through n − 13), Liver [2, 6]: 2.3 µg/g
Mean Concentration total metabolites (n + 1 through n − 13), Lung [2, 6]: BDL (below detectable limits (1 μg/g rat; 0.2 μg/g monkey))
Mean Concentration total metabolites (n + 1 through n − 13), Lymph node [2, 6]: 371.3 µg/g
Mean Concentration total metabolites (n + 1 through n − 13), Spleen [2, 6]: 367.8 µg/g
Concentrations in the brain ([2]; lower limit for detection 0.2 μg/g): below the limits of detection
